target: T1, P2X7 (Homo sapiens, UniProt Q99572); experiment: High Throughput P2X7 Calcium Mobilization Assay (Example 4A), antagonist activity; assay type: cell-based; conditions: SH-SY5Y cells, 50% decrease in fluorescence response of cells exposed to 80 μM BzATP
T1 construct: host or cells: SH-SY5Y
T1 sequence (Q99572 1-595): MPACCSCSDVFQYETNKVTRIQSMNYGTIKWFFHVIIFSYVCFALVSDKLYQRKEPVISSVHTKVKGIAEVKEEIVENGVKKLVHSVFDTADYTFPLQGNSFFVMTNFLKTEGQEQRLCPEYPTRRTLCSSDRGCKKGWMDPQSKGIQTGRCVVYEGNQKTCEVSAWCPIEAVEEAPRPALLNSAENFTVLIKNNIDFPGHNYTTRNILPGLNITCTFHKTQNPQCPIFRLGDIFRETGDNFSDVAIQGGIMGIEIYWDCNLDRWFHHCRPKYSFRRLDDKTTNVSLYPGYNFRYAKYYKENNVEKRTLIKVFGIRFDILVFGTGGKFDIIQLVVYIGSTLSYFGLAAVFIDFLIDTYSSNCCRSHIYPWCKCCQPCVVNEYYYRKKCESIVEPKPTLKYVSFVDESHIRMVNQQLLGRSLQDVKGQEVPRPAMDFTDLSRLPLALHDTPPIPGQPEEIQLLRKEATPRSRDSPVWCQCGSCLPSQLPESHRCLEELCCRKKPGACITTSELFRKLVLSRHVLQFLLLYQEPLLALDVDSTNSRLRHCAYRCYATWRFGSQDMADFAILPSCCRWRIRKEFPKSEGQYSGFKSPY
Experimental: A. High Throughput P2X7 Calcium Mobilization Assay
SH-SY5Y cells, ATCC Number CRL-2266, (American Type Culture Collection, Manassas, Va.) are cultured under DMEM/High medium supplemented with 10% FBS, and 10 mM HEPES (Invitrogen Corp., Carlsbad, Calif.) in 5% CO2 and at 37° C. One day prior to the experiment, cells are plated at a density of 100,000 cells/well in a 96 well black/clear TC plate (Corning® Costar®, Sigma-Aldrich Co., St. Louis, Mo.). At the beginning of the experiment, the culture medium is removed and cells are incubated with 50 μL of 2.3 μM Fluo-4 AM dye (Invitrogen Corp.) in the assay solution (5 mM KCl, 9.6 mM NaH2PO4.H2O, 25 mM HEPES, 280 mM Sucrose, 5 mM Glucose, and 0.5 mM CaCl2; pH is adjusted to 7.4 with NaOH) for an hour at 37° C. After one hour dye incubation, wells are rinsed once with 50 μL assay solution, and are then incubated for an hour at room temperature with 100 μL assay solution containing the test compound. The final concentration of test compound generally ranges from 1 to 2500 nM; for positive control cells, no test compound is added. After the one hour incubation, plates are transferred to a FLIPR^TETRA instrument (Molecular Devices, Sunnyvale, Calif.) for calcium mobilization analysis.
For determination of antagonist activity, 50 μL of P2X7 agonist (2′(3′)-O-(4-benzoyl-benzoyl)adenosine 5′-triphosephate (BzATP; Sigma-Aldrich) in the assay solution is transferred using the FLIPR into the plate, such that the final agonist concentration is 80 μM (about EC50). In negative control cells, 50 μL of assay solution without agonist is added at this stage. The peak fluorescence signal over a 2 minute period is then measured.
First, the average maximum relative fluorescent unit (RFU) response from the negative control wells (no agonist) is subtracted from the maximum response detected for each of the other experimental wells. Second, average maximum RFU response is calculated for the positive control wells (agonist wells). Then, percent inhibition for each compound tested is calculated using the equation: Percent Inhibition=100−100×(Peak Signal in Test Cells/Peak Signal in Control Cells) The % inhibition data is plotted as a function of test compound concentration and test compound IC50 is determined using, for example, KALEIDAGRAPH software (Synergy Software, Reading, Pa.) best fit of the data to the equation: y=m1*(1/(1+(m2/m0)^m3)) where y is the percent inhibition, m0 is […], m1 is the maximum RFU, m2 corresponds to the test compound IC50 (the concentration required to provide a 50% decrease, relative to the response observed in the presence of agonist and without antagonist) and m3 is the Hill coefficient.

| Structure (SMILES) | IC50 [nM] |
| --- | --- |
| O=C(NCc1ccccn1)c1cc2c(C(=O)NCC34CC5CC(CC(C5)C3)C4)cccn2n1 [Compound 51, 4-N-(adamantan-1-ylmethyl)-2-N-(pyridin-2-ylmethyl)pyrazolo[1,5-a]pyridine-2,4-dicarboxamide] | ≤ 2000 |
| O=C(NC1CCS(=O)(=O)C1)c1cc2c(C(=O)NCC34CC5CC(CC(C5)C3)C4)cccn2n1 (stereo not shown) [Compound 82, 4-N-(adamantan-1-ylmethyl)-2-N-(1,1-dioxidotetrahydrothio-phen-3-yl)pyrazolo[1,5-a]pyridine-2,4-dicarboxamide] | ≤ 2000 |
| O=C(NCC1(c2ccc(Cl)cc2)CCCCC1)c1cccn2nc(C(Cc3ccccc3)C(=O)O)cc12 (stereo not shown) [Compound 104, 2-[4-({[1-(4-chlorophenyl)cyclohex-yl]methyl}carbamoyl)pyrazolo[1,5-a]pyridin-2-yl]-3-phenyl propanoic acid] | ≤ 2000 |
| CC(C)CC(CNC(=O)c1cccn2nc(C(=O)N3CC[C@@H](N)C3)cc12)c1cccnc1 (stereo partly drawn) [Compound 56, 2-{[(3R)-3-aminopyrrolidin-1-yl]carbonyl}-N-(4-methyl-2-pyridin-3-ylpentyl)pyrazolo[1,5-a]pyridine-4-carboxamide] | ≤ 2000 |
| CN(Cc1ccccn1)C(=O)c1cc2c(C(=O)NCC34CC5CC(CC(C5)C3)C4)cccn2n1 [Compound 50, 4-N-(adamantan-1-ylmethyl)-2-N-methyl-2-N-(pyridin-2-ylmethyl)pyrazolo[1,5-a]pyridine-2,4-dicarboxamide] | ≤ 2000 |
| CC(C)CC(CNC(=O)c1cccn2nc(C(=O)N3CC[C@@H](N)C3)cc12)c1ccc(Cl)cc1 (stereo partly drawn) [Compound 71, 2-{[(3R)-3-aminopyrrolidin-1-yl]carbonyl}-N-[2-(4-chlorophenyl)-4-methylpentyl]pyrazolo [1,5-a]pyridine-4-carboxamide] | ≤ 2000 |
| N[C@@H]1CCN(C(=O)c2cc3c(NC(=O)CC45CC6CC(CC(C6)C4)C5)cccn3n2)C1 [Compound 99, 2-adamantan-1-yl-N-(2-{[(3R)-3-aminopyrrolidin-1-yl]carbonyl}pyrazolo [1,5-a]pyridin-4-yl)acetamide] | ≤ 2000 |
| CN(Cc1cccc(F)c1)Cc1cc2c(C(=O)NCC34CC5CC(CC(C5)C3)C4)cccn2n1 [Compound 69, N-(adamantan-1-ylmethyl)-2-{[(3-fluorobenzyl)(methyl)amino]methyl}pyrazolo [1,5-a]pyridine-4-carboxamide] | ≤ 2000 |
| O=C(NCC12CC3CC(CC(C3)C1)C2)c1cccn2nc(CCC3=NCCN3)cc12 [Compound 95, N-(adamantan-1-ylmethyl)-2-[2-(4,5-dihydro-1H-imidazol-2-yl)ethyl]pyrazolo[1,5-a]pyridine-4-carboxamide] | ≤ 2000 |
| O=C(NCC1(c2ccc(Cl)cc2)CCCCC1)c1cccn2nc(C(=O)N3CCn4cncc4C3)cc12 [Compound 83, N-{[1-(4-chlorophenyl)cyclohex-yl]methyl}-2-(5,6-dihydroimidazo[1,5-a]pyrazin-7(8H)-ylcarbonyl)pyrazolo [1,5-a]pyridine-4-carboxamide] | ≤ 2000 |
| NC(=O)c1ccc(-c2cc3c(C(=O)NCC45CC6CC(CC(C6)C4)C5)cccn3c2)cc1 [Compound 112, N-(adamantan-1-ylmethyl)-2-(4-carbamoylphenyl) indolizine-8-carboxamide] | ≤ 2000 |
| CN(Cc1ccc(F)cc1)Cc1cc2c(C(=O)NCC34CC5CC(CC(C5)C3)C4)cccn2n1 [Compound 70, N-(adamantan-1-ylmethyl)-2-{[(4-fluorobenzyl)(methyl)amino]methyl}pyrazolo [1,5-a]pyridine-4-carboxamide] | ≤ 2000 |
| O=C(NCC12CC3CC(CC(C3)C1)C2)c1cccn2nc(C(=O)N3CCn4cncc4C3)cc12 [Compound 20, N-(adamantan-1-ylmethyl)-2-(5,6-dihydroimidazo[1,5-a]pyrazin-7(8H)-ylcarbonyl)pyrazolo [1,5-a]pyridine-4-carboxamide] | ≤ 2000 |
| O=C(NCC12CC3CC(CC(C3)C1)C2)c1cccn2nc(CC3=NCCN3)cc12 [Compound 89, N-(adamantan-1-ylmethyl)-2-(4,5-dihydro-1H-imidazol-2-ylmethyl)pyrazolo[1,5-a]pyridine-4-carboxamide] | ≤ 2000 |
| CCOC(=O)CN(C)Cc1cc2c(C(=O)NCC34CC5CC(CC(C5)C3)C4)cccn2n1 [Compound 29, ethyl N-({4-[(adamantan-1-ylmethyl)carbamoyl]pyrazolo[1,5-a]pyridin-2-yl}methyl)-N-methylglycinate] | ≤ 2000 |
| O=C(NC1CCOCC1)c1cc2c(C(=O)NCC34CC5CC(CC(C5)C3)C4)cccn2n1 [Compound 35, 4-N-(adamantan-1-ylmethyl)-2-N-(tetrahydro-2H-pyran-4-yl)pyrazolo[1,5-a]pyridine-2,4-dicarboxamide] | ≤ 2000 |

Other lines, results leading:

| IC50 [nM] | Structure (SMILES) |
| --- | --- |
| ≤ 2000 | CCN(CC)[C@@H]1CCN(C(=O)c2cc3c(C(=O)NCC45CC6CC(CC(C6)C4)C5)cccn3n2)C1 [Compound 31, N-(adamantan-1-ylmethyl)-2-{[(3R)-3-(diethylamino)pyrrolidin-1-yl]carbonyl}pyrazolo [1,5-a]pyridine-4-carboxamide] |
| ≤ 2000 | O=C(CC12CC3CC(CC(C3)C1)C2)Nc1cccn2nc(C(=O)N3CCn4cncc4C3)cc12 [Compound 97, 2-adamantan-1-yl-N-[2-(5,6-dihydroimidazo[1,5-a]pyrazin-7(8H)-ylcarbonyl)pyrazolo [1,5-a]pyridin-4-yl]acetamide] |
| ≤ 2000 | O=C(NCC12CC3CC(CC(C3)C1)C2)c1cccn2nc(C(=O)N3CCn4cnnc4C3)cc12 [Compound 24, N-(adamantan-1-ylmethyl)-2-(5,6-dihydro[1,2,4]triazolo [4,3-a]pyrazin-7(8H)-ylcarbonyl)pyrazolo [1,5-a]pyridine-4-carboxamide] |
| ≤ 2000 | CC(C)CC(CNC(=O)c1cccn2nc(C(=O)N(C)CCF)cc12)c1ccc(C(F)(F)F)cc1 (stereo not shown) [Compound 86, 2-N-(2-fluoroethyl)-2-N-methyl-4-N-{4-methyl-2-[4-(trifluoromethyl)phenyl]pentyl}pyrazolo[1,5-a]pyridine-2,4-dicarboxamide] |
| ≤ 2000 | O=C(NCC12CC3CC(CC(C3)C1)C2)c1cccn2nc(CN3CCn4cncc4C3)cc12 [Compound 52, N-(adamantan-1-ylmethyl)-2-(5,6-dihydroimidazo[1,5-a]pyrazin-7(8H)-ylmethyl)pyrazolo[1,5-a]pyridine-4-carboxamide] |
| ≤ 2000 | CC(C)CC(CNC(=O)c1cccn2nc(C(=O)N3[C@H](C)COC[C@@H]3C)cc12)c1ccc(C(F)(F)F)cc1 (single isomer, unassigned) [Compound 102] |
| ≤ 2000 | CN(CCF)C(=O)c1cc2c(NC(=O)CC34CC5CC(CC(C5)C3)C4)cccn2n1 [Compound 98, 4-[(adamantan-1-ylacetyl)amino]-N-(2-fluoroethyl)-N-methylpyrazolo[1,5-a]pyridine-2-carboxamide] |
| ≤ 2000 | CN(Cc1ccncc1)C(=O)c1cc2c(C(=O)NCC34CC5CC(CC(C5)C3)C4)cccn2n1 [Compound 33, 4-N-(adamantan-1-ylmethyl)-2-N-methyl-2-N-(pyridin-4-ylmethyl)pyrazolo[1,5-a]pyridine-2,4-dicarboxamide] |
| ≤ 2000 | CN(C(=O)c1cc2c(C(=O)NCC34CC5CC(CC(C5)C3)C4)cccn2n1)c1ccccn1 [Compound 19, 4-N-(adamantan-1-ylmethyl)-2-N-methyl-2-N-pyridin-2-ylpyrazolo[1,5-a]pyridine-2,4-dicarboxamide] |
